Data as given in ChEMBL document CHEMBL1201862, “PubChem BioAssay data set” (2004).
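Results reflect a 48-hour exposure of cells in 96-well plates to compound at five concentrations. GI50 = concentration required for 50% inhibition of growth.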 Activity calls are given as the source filed them. Cut-off read from the data, not from the text of the source: active = GI50 up to about 1.1 µM and inactive = higher.

What was measured:
Assay in all cases: growth of human tumour cells (NCI), 48 h
NCI-H460 = tested on: NCI-H460
SF-295 = tested on: SF-295
HCC 2998 = tested on: HCC 2998
HCT-116 = tested on: HCT-116
COLO 205 = tested on: COLO 205
SF-268 = tested on: SF-268
HCT-15 = tested on: HCT-15
EKVX = tested on: EKVX
HOP-62 = tested on: HOP-62
SK-MEL-5 = tested on: SK-MEL-5
NCI-H23 = tested on: NCI-H23
MOLT-4 = tested on: MOLT-4
SNB-19 = tested on: SNB-19
U-251 = tested on: U-251
RXF 393 = tested on: RXF 393
RPMI-8226 = tested on: RPMI-8226
SK-OV-3 = tested on: SK-OV-3
KM12 = tested on: KM12
SR = tested on: SR

Row | Structure (SMILES) | GI50 (NCI-H460) | GI50 (SF-295) | GI50 (HCC 2998) | GI50 (HCT-116) | GI50 (COLO 205) | GI50 (SF-268) | GI50 (HCT-15) | GI50 (EKVX) | GI50 (HOP-62) | GI50 (SK-MEL-5) | GI50 (NCI-H23) | GI50 (MOLT-4) | GI50 (SNB-19) | GI50 (U-251) | GI50 (RXF 393) | GI50 (RPMI-8226) | GI50 (SK-OV-3) | GI50 (KM12) | GI50 (SR)
1 | COc1cccc(/C=C2\C(=O)N(C(=O)c3ccc(NC(C)=O)cc3)N=C2C)c1 | > 100 µM (inactive) | > 100 µM (inactive) | > 100 µM (inactive) | > 100 µM (inactive) | > 100 µM (inactive) | > 100 µM (inactive) | > 100 µM | > 100 µM (inactive) | > 100 µM (inactive) | 56.1 µM (inactive) | > 100 µM (inactive) | > 100 µM (inactive) | > 100 µM (inactive) | > 100 µM (inactive) | – | – | – | – | –
2 | Cc1cc(O)c(C(=O)O)c2c1C(=O)c1c(O)c(OCC(O)C(O)C(O)C(O)CO)c(O)c(O)c1C2=O.NCCNCCO (configuration not stated) | – | > 100 µM (inactive) | > 100 µM (inactive) | – | > 100 µM (inactive) | > 100 µM (inactive) | > 100 µM | > 100 µM (inactive) | > 100 µM (inactive) | > 100 µM (inactive) | > 100 µM (inactive) | > 100 µM (inactive) | > 100 µM (inactive) | > 100 µM (inactive) | > 100 µM (inactive) | > 100 µM (inactive) | > 100 µM (inactive) | 39.9 µM (inactive) | –
3 | Clc1ccc(Cl)c2[s+]snc12 | 30.7 µM (inactive) | > 76.6 µM (inactive) | > 100 µM (inactive) | 21.6 µM (inactive) | > 43.1 µM (inactive) | 46.8 µM (inactive) | 29.4 µM | > 100 µM (inactive) | > 85.3 µM (inactive) | 76 µM (inactive) | > 100 µM (inactive) | > 79.6 µM (inactive) | > 93.5 µM (inactive) | 38.6 µM (inactive) | – | > 48.6 µM (inactive) | > 100 µM (inactive) | > 67.5 µM (inactive) | > 100 µM (inactive)
4 | COC(=O)C1(c2ccc(OC)cc2)NC(c2ccccc2)C2C(=O)N(c3ccc(OC)cc3)C(=O)C21 (configuration not stated) | > 100 µM (inactive) | > 100 µM (inactive) | > 100 µM (inactive) | – | > 100 µM (inactive) | > 100 µM (inactive) | > 100 µM | > 100 µM (inactive) | – | > 100 µM (inactive) | > 100 µM (inactive) | > 100 µM (inactive) | > 100 µM (inactive) | > 100 µM (inactive) | > 100 µM (inactive) | > 100 µM (inactive) | > 100 µM (inactive) | > 100 µM (inactive) | –
5 | O=C(Cn1ccnc1[N+](=O)[O-])c1ccc(F)cc1 | > 100 µM (inactive) | > 100 µM (inactive) | – | – | > 100 µM (inactive) | > 100 µM (inactive) | > 100 µM | > 100 µM (inactive) | > 100 µM (inactive) | > 100 µM (inactive) | > 100 µM (inactive) | > 100 µM (inactive) | > 100 µM (inactive) | > 100 µM (inactive) | > 100 µM (inactive) | > 100 µM (inactive) | > 100 µM (inactive) | > 100 µM (inactive) | –
6 | Cc1ccccc1NC(=O)C1C(=O)N(c2ccccc2C)C(=O)/C1=N\NC(N)=S (configuration not stated) | – | > 100 µM (inactive) | – | > 100 µM (inactive) | – | > 100 µM (inactive) | – | > 100 µM (inactive) | – | – | > 100 µM (inactive) | > 100 µM (inactive) | > 100 µM (inactive) | > 100 µM (inactive) | – | > 100 µM (inactive) | > 100 µM (inactive) | > 100 µM (inactive) | > 100 µM (inactive)
7 | COc1cccc(OC)c1C(=O)OCc1ccccc1 | > 100 µM (inactive) | > 100 µM (inactive) | – | > 100 µM (inactive) | > 100 µM (inactive) | > 100 µM (inactive) | > 100 µM | > 100 µM (inactive) | > 100 µM (inactive) | > 100 µM (inactive) | > 100 µM (inactive) | > 100 µM (inactive) | – | > 100 µM (inactive) | > 100 µM (inactive) | > 100 µM (inactive) | > 100 µM (inactive) | > 100 µM (inactive) | > 100 µM (inactive)
8 | OC12CCC3(O)c4ccccc4C3C1c1ccccc12 (configuration not stated) | > 100 µM (inactive) | > 100 µM (inactive) | – | > 100 µM (inactive) | > 100 µM (inactive) | > 100 µM (inactive) | > 100 µM | > 100 µM (inactive) | > 100 µM (inactive) | > 100 µM (inactive) | > 100 µM (inactive) | > 100 µM (inactive) | > 100 µM (inactive) | > 100 µM (inactive) | > 100 µM (inactive) | > 100 µM (inactive) | > 100 µM (inactive) | > 100 µM (inactive) | > 100 µM (inactive)
9 | c1ccc2c(c1)[nH]c1c2ncc2[nH]c3ccccc3c21 | 2.13 µM (inactive) | 3.58 µM (inactive) | 2.64 µM (inactive) | 1.77 µM (inactive) | 2.45 µM (inactive) | 6.32 µM (inactive) | 2.25 µM | 12.9 µM (inactive) | 4.31 µM (inactive) | 5.48 µM (inactive) | 10.4 µM (inactive) | 3.05 µM (inactive) | 2.94 µM (inactive) | 2.43 µM (inactive) | – | 2.26 µM (inactive) | 14.1 µM (inactive) | 3.06 µM (inactive) | –
10 | Cc1c2cc[n+](C)cc2c(C)c2c1[nH]c1ccccc12 | 2.06 µM (inactive) | 0.233 µM (active) | 3.49 µM (inactive) | 4.22 µM (inactive) | 0.665 µM (active) | 0.408 µM (active) | – | 0.718 µM (active) | 0.441 µM (active) | 1.35 µM (inactive) | 0.714 µM (active) | 0.912 µM (active) | 0.274 µM (active) | 0.379 µM (active) | 1.75 µM (inactive) | 8.49 µM (inactive) | 6.67 µM (inactive) | 0.402 µM (active) | –
11 | CC(=O)c1c2c(cc3c1CC1(C3)Cc3cc4c(c(C(=O)O)c3C1)CCC4)CCC2 (configuration not stated) | 32 µM (inactive) | 38.9 µM (inactive) | 37.8 µM (inactive) | 24.9 µM (inactive) | 24.7 µM (inactive) | 36.8 µM (inactive) | – | – | 36.5 µM (inactive) | 35.7 µM (inactive) | 26.2 µM (inactive) | 25.9 µM (inactive) | 45.3 µM (inactive) | 26.2 µM (inactive) | 45.5 µM (inactive) | – | – | 44.2 µM (inactive) | 25.2 µM (inactive)
12 | CC(C)NC(=O)OCc1c2c(n(C)c1COC(=O)NC(C)C)-c1ccccc1CC2 | 14.1 µM (inactive) | 15.9 µM (inactive) | 13.1 µM (inactive) | 10 µM (inactive) | 8.05 µM (inactive) | 10.2 µM (inactive) | 14 µM | 14.9 µM (inactive) | 13 µM (inactive) | 14.4 µM (inactive) | 6.71 µM (inactive) | 2.61 µM (inactive) | 14.6 µM (inactive) | 9.18 µM (inactive) | 12.5 µM (inactive) | 3.23 µM (inactive) | 15.7 µM (inactive) | 15.5 µM (inactive) | –
13 | O=C(Cc1nc2ccc(C(=O)c3ccccc3)cc2nc1O)C(=O)Nc1ccc(C(F)(F)F)cc1[N+](=O)[O-] | 57.8 µM (inactive) | 94.2 µM (inactive) | > 100 µM (inactive) | 96.2 µM (inactive) | 45 µM (inactive) | 65 µM (inactive) | > 100 µM | 11.7 µM (inactive) | 91.8 µM (inactive) | 39.7 µM (inactive) | 75 µM (inactive) | 22.8 µM (inactive) | 94.8 µM (inactive) | > 100 µM (inactive) | – | 42.5 µM (inactive) | > 100 µM (inactive) | 59 µM (inactive) | 26.9 µM (inactive)
14 | O=C1CCCCCCCCCCC1CN1CCCCC1 (configuration not stated) | 51.1 µM (inactive) | 46.9 µM (inactive) | > 100 µM (inactive) | 58.6 µM (inactive) | 41.4 µM (inactive) | > 100 µM (inactive) | 59.8 µM | > 100 µM (inactive) | > 100 µM (inactive) | 15 µM (inactive) | 26.9 µM (inactive) | 57 µM (inactive) | > 100 µM (inactive) | 75.3 µM (inactive) | – | > 100 µM (inactive) | – | 71.1 µM (inactive) | > 100 µM (inactive)
15 | O=C1N[C@@H]2C(=C[C@H](O)[C@@H](O)[C@H]2O)c2cc3c(c(O)c21)OCO3 [NARCICLASINE] | 0.045 µM (active) | 0.0634 µM (active) | 0.045 µM (active) | 0.045 µM (active) | – | 0.045 µM (active) | 0.045 µM | 0.045 µM (active) | 0.045 µM (active) | 0.045 µM (active) | 0.045 µM (active) | 0.045 µM (active) | 0.045 µM (active) | 0.045 µM (active) | – | 0.045 µM (active) | 0.045 µM (active) | 0.045 µM (active) | –
16 | Nc1cc[nH]c(=O)n1 | > 100 µM (inactive) | > 100 µM (inactive) | – | > 100 µM (inactive) | > 100 µM (inactive) | > 100 µM (inactive) | > 100 µM | > 100 µM (inactive) | > 100 µM (inactive) | > 100 µM (inactive) | – | – | – | > 100 µM (inactive) | > 100 µM (inactive) | > 100 µM (inactive) | > 100 µM (inactive) | > 100 µM (inactive) | –
17 | CC(=O)OC1CC[C@@]2(C)C(CC(OC3OC(CO)C(O)C(O)C3O)[C@]3(C)C2CCC24CC23CC[C@H]4C(C)CC(O)[C@@H](O)C(C)(C)O)C1(C)C (some centres not stated) | 18.8 µM (inactive) | 22.4 µM (inactive) | 11.7 µM (inactive) | 9.91 µM (inactive) | 9.4 µM (inactive) | 18.4 µM (inactive) | > 50 µM | 16.3 µM (inactive) | 18.6 µM (inactive) | 8.93 µM (inactive) | > 50 µM (inactive) | 11.4 µM (inactive) | 14.2 µM (inactive) | 9.71 µM (inactive) | 12.5 µM (inactive) | 10.3 µM (inactive) | > 50 µM (inactive) | 10.5 µM (inactive) | –
